Experimental findings from patent US12344623B2, “Thiazolopyridine derivatives as adenosine receptor antagonists” (Merck Patent GmbH, priority 2019, dated 2025) are described below.

Read-outs that look alike come from different tables or passages of the source. A value given as a limit tells only on which side of the number the result lay.

Type in all cases: cell-based
One assay has as its target T1, human A1 receptor (Homo sapiens, UniProt P30542).
T1 construct: expressed in transfected cells; host or cells: CHO
T1 sequence (P30542 1-326): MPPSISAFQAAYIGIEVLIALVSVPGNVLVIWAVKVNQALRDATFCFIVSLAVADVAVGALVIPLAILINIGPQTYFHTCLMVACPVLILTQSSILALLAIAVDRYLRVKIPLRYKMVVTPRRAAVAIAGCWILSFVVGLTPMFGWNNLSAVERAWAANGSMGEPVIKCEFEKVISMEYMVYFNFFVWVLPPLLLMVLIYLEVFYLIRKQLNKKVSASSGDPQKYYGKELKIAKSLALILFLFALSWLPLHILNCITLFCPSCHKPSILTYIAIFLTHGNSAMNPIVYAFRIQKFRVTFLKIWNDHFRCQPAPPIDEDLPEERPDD
The assay can be described thus: Functional A1 receptor activity, recombinant CHO cells, cAMP (HTRF), forskolin, agonist CPA. Conditions: recombinant CHO cells, forskolin, agonist CPA, read-out: Functional A1 receptor activity, CHO, cAMP, IC50. Here is the method: (§1) The functional activities of human A2A, A2B, A1 and A3 receptors were determined by quantification of cAMP, being the second messenger for adenosine receptors.
(§2) For human A1 and A3 receptors, recombinant CHO cells, expressing either A1 or A3-receptor, were used. As both receptors couple to Gi proteins, the assay protocol was adapted:
(§3) Cells were seeded into 384-well plates, forskolin, test compounds and agonists (CPA for A1- and IB-MECA for A3-receptor) were added. After 30 min incubation, HTRF reagents (cAMP dynamic 2, Cis Bio) were added and the cellular cAMP levels were determined using the ENVISION (Perkin Elmer) plate reader. Obtained raw data were normalized against the inhibitor control and the neural control (DMSO) and the normalized data were fitted using GeneData software.
(In general: Time-resolved FRET reads energy transfer from a long-lived donor to a nearby acceptor.)

For another assay, the target named is T2, human A2B receptor (Homo sapiens, UniProt P29275).
T2 construct: expressed in transfected cells; host or cells: HEK293
T2 sequence (P29275 1-332): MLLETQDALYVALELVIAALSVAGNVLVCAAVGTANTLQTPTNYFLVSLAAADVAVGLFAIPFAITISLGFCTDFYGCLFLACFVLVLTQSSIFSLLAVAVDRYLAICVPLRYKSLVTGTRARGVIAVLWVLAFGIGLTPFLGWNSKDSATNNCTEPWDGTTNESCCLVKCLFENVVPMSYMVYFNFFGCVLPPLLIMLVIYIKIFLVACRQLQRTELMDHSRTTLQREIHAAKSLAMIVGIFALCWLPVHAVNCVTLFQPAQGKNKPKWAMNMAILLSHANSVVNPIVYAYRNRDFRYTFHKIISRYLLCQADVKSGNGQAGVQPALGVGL
The assay can be described thus: Functional A2B receptor activity, recombinant HEK293 cells, cAMP (HTRF), agonist NECA. The conditions noted are these: read-out: Functional A2B receptor activity, HEK293, cAMP, IC50. Here is the method: as §1, §3

A further assay has as its target human A2A receptor (Homo sapiens, UniProt P29274). Kind of assay: Functional A2A receptor activity, recombinant HEK293 cells, cAMP (HTRF), agonist NECA. Conditions: read-out: Functional A2A receptor activity, HEK293, cAMP, IC50. Set-up: expressed in transfected cells; host or cells: HEK293. Here is the method:
as §1, §3

Another assay concerns the target T3, human A3 receptor (Homo sapiens, UniProt P0DMS8).
T3 construct: expressed in transfected cells; host or cells: CHO
T3 sequence (P0DMS8 1-318): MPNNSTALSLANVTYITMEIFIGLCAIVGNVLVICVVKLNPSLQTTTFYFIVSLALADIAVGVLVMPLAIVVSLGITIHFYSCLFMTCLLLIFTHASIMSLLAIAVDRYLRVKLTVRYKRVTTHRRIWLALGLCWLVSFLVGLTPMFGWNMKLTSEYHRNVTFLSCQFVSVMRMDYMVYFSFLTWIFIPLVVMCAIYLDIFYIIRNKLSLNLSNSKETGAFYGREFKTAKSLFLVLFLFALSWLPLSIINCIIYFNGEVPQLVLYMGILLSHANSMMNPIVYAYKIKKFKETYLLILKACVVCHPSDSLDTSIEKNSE
Kind of assay: Functional A3 receptor activity, recombinant CHO cells, cAMP (HTRF), forskolin, agonist IB-MECA. The conditions noted are these: recombinant CHO cells, forskolin, agonist IB-MECA, read-out: Functional A3 receptor activity, CHO, cAMP, IC50. Here is the method: as §1, §2, §3

human A2A receptor, sequence (P29274 whole entry): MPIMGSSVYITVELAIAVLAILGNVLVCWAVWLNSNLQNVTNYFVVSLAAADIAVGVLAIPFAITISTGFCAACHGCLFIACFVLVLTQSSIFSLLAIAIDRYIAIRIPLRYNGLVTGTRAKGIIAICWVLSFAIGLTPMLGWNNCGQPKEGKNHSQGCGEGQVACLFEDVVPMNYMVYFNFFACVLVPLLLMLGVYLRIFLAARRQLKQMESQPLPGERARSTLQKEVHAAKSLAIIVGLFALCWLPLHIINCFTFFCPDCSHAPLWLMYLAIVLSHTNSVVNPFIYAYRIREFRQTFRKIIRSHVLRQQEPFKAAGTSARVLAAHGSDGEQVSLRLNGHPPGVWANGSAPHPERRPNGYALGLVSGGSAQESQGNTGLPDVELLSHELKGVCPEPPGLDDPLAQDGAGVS

Consider `COc1nc(F)c(N2CCOCC2)c2sc(NC(=O)C3CC3)nc12` [Compound 4, Cyclopropanecarboxylic acid (6-fluoro-4-methoxy-7-morpholin-4-yl-thiazolo[4,5-c]pyridin-2-yl)-amide], for which the IC50 (commonly the concentration needed to halve the response being measured) is over 1000 nM at human A1 receptor, under 10 nM at human A2B receptor, under 10 nM on human A2A receptor and under 1000 nM on human A3 receptor.

On to `COc1ncc(C2COCCO2)c2sc(NC(=O)N3CCC4(CCOCC4)C3)nc12` (centres unmarked) [Compound 73, 8-Oxa-2-aza-spiro[4.5]decane-2-carboxylic acid (7-[1,4]dioxan-2-yl-4-methoxy-thiazolo[4,5-c]pyridin-2-yl)-amide], for which the IC50 at human A1 receptor was over 1000 nM; on human A2B receptor, under 100 nM; at human A2A receptor, under 10 nM; on human A3 receptor, over 1000 nM.

Regarding `COc1ncc(-c2cnn(C(F)F)c2)c2sc(NC(=O)N3CCC4(CCOCC4)C3)nc12` [Compound 79, 8-Oxa-2-aza-spiro[4.5]decane-2-carboxylic acid [7-(1-difluoromethyl-1H-pyrazol-4-yl)-4-methoxy-thiazolo[4,5-c]pyridin-2-yl]-amide], the IC50 was under 1000 nM at human A1 receptor, under 100 nM on human A2B receptor, under 10 nM on human A2A receptor and over 1000 nM on human A3 receptor.

In the case of `COCCNc1ncc(C(=O)Nc2nc3c(OC)ncc(C4CCOCC4)c3s2)s1` [Compound 17, N-[4-methoxy-7-(oxan-4-yl)-[1,3]thiazolo[4,5-c]pyridin-2-yl]-2-[(2-methoxyethyl)amino]-1,3-thiazole-5-carboxamide], the IC50 on human A1 receptor was under 1000 nM; at human A2B receptor it was under 10 nM; at human A2A receptor, under 10 nM; on human A3 receptor it was over 1000 nM.

Consider `COc1ncc(C2=CCOCC2)c2sc(NC(=O)Nc3ccc(NC(=O)CN(C)C)cc3)nc12` [Compound 90, N-[4-({[7-(3,6-dihydro-2H-pyran-4-yl)-4-methoxy-[1,3]thiazolo[4,5-c]pyridin-2-yl]carbamoyl}amino)phenyl]-2-(dimethylamino)acetamide], for which the IC50 on human A1 receptor is over 1000 nM; at human A2B receptor, under 10 nM; at human A2A receptor, under 10 nM; on human A3 receptor it was over 1000 nM.

For the compound `COCCNc1ncc(C(=O)Nc2nc3c(OC)ncc(C4=CCOCC4)c3s2)s1` [Compound 81, N-[7-(3,6-dihydro-2H-pyran-4-yl)-4-methoxy-[1,3]thiazolo[4,5-c]pyridin-2-yl]-2-[(2-methoxyethyl)amino]-1,3-thiazole-5-carboxamide], the IC50 on human A1 receptor is under 1000 nM; at human A2B receptor, under 10 nM; at human A2A receptor, under 10 nM; at human A3 receptor it was over 1000 nM.

`COc1ncc([C@@H]2COCCO2)c2sc(NC(=O)c3ccc(C(=O)O)cc3)nc12` [Compound 169, N-((R)-7-[1,4]Dioxan-2-yl-4-methoxy-thiazolo[4,5-c]pyridin-2-yl)-terephthalamic acid]: the IC50 is over 1000 nM at human A1 receptor, under 100 nM on human A2B receptor, under 10 nM on human A2A receptor and over 1000 nM at human A3 receptor.

Regarding `COc1ncc(C2=CCOCC2)c2sc(NC(=O)c3ccc(C(=O)N4CCN(C)CC4)cc3)nc12` [Compound 125, N-[7-(3,6-Dihydro-2H-pyran-4-yl)-4-methoxy-thiazolo[4,5-c]pyridin-2-yl]-4-(4-methyl-piperazine-1-carbonyl)-benzamide], the half-inhibitory concentration (IC50) is under 1000 nM at human A1 receptor, under 10 nM at human A2B receptor, under 10 nM at human A2A receptor and over 1000 nM at human A3 receptor.

With `COCCOCCn1cc(-c2cnc(OC)c3nc(NC(=O)N4CCC5(CCOCC5)C4)sc23)cn1` [Compound 103, 8-Oxa-2-aza-spiro[4.5]decane-2-carboxylic acid (4-methoxy-7-{1-[2-(2-methoxy-ethoxy)-ethyl]-1H-pyrazol-4-yl}-thiazolo[4,5-c]pyridin-2-yl)-amide], the IC50 on human A1 receptor is under 1000 nM; at human A2B receptor, under 100 nM; on human A2A receptor, under 10 nM; at human A3 receptor, over 1000 nM.

`COc1ncc(C2CCCCC2)c2sc(NC(=O)N3CCC4(CCOCC4)C3)nc12` [Compound 62, 8-Oxa-2-aza-spiro[4.5]decane-2-carboxylic acid (7-cyclohexyl-4-methoxy-thiazolo[4,5-c]pyridin-2-yl)-amide]: the IC50 was over 1000 nM on human A1 receptor, under 100 nM at human A2B receptor, under 10 nM on human A2A receptor and over 1000 nM on human A3 receptor.

As for `COc1ncc(-c2ccc(=O)[nH]c2)c2sc(NC(=O)N3CCC4(CCOCC4)C3)nc12` [Compound 78, 8-Oxa-2-aza-spiro[4.5]decane-2-carboxylic acid [4-methoxy-7-(6-oxo-1,6-dihydro-pyridin-3-yl)-thiazolo[4,5-c]pyridin-2-yl]-amide], the IC50 at human A1 receptor is over 1000 nM; on human A2B receptor it was under 1000 nM; on human A2A receptor, under 10 nM; at human A3 receptor, over 1000 nM.

Take `COc1ncc(C2=CCOCC2)c2sc(NC(=O)c3cnn(-c4ccncc4)c3)nc12` [Compound 157, 1-Pyridin-4-yl-1H-pyrazole-4-carboxylic acid [7-(3,6-dihydro-2H-pyran-4-yl)-4-methoxy-thiazolo[4,5-c]pyridin-2-yl]-amide]: the IC50 is under 1000 nM on human A1 receptor, under 10 nM on human A2B receptor, under 10 nM at human A2A receptor and over 1000 nM on human A3 receptor.

On to `COc1ncc(C2=CCOCC2)c2sc(NC(=O)N3CC[C@]4(CCCNC4)C3)nc12` [Compound 122, (S)-2,7-Diaza-spiro[4.5]decane-2-carboxylic acid [7-(3,6-dihydro-2H-pyran-4-yl)-4-methoxy-thiazolo[4,5-c]pyridin-2-yl]-amide], for which the IC50 at human A1 receptor is over 1000 nM; on human A2B receptor, under 100 nM; at human A2A receptor, under 10 nM; at human A3 receptor, over 1000 nM.

Regarding `COc1nc(F)c(C2CCOCC2)c2sc(NC(=O)N3CC[C@]4(CCCOC4)C3)nc12` [Compound 34, (R)-7-Oxa-2-aza-spiro[4.5]decane-2-carboxylic acid [6-fluoro-4-methoxy-7-(tetrahydro-pyran-4-yl)-thiazolo[4,5-c]pyridin-2-yl]-amide], the IC50 on human A1 receptor is over 1000 nM; on human A2B receptor it was under 100 nM; at human A2A receptor, under 10 nM; on human A3 receptor it was over 1000 nM.

As to `COc1ccc(-c2ccccc2)c2sc(NC(=O)NCCN3CCCCC3)nc12` [drawing 187, reference compound], the IC50 at human A1 receptor (cAMP) was over 1000 nM; on human A2B receptor, over 1000 nM; on human A2A receptor, under 100 nM; at human A3 receptor (cAMP) it was over 1000 nM.

Regarding `COc1nc(F)c(-c2ccccc2)c2sc(NC(=O)c3c[nH]cn3)nc12` [Compound 32, 1H-Imidazole-4-carboxylic acid (6-fluoro-4-methoxy-7-phenyl-thiazolo[4,5-c]pyridin-2-yl)-amide], the IC50 at human A1 receptor was under 100 nM; on human A2B receptor it was under 10 nM; at human A2A receptor it was under 10 nM; at human A3 receptor, over 1000 nM.

As to `COc1ncc(-c2ccc(C)o2)c2sc(NC(=O)N3CCC4(CCOCC4)C3)nc12` [Compound 114, 8-Oxa-2-aza-spiro[4.5]decane-2-carboxylic acid [4-methoxy-7-(5-methyl-furan-2-yl)-thiazolo[4,5-c]pyridin-2-yl]-amide], the half-maximal inhibitory concentration (IC50) was under 1000 nM on human A1 receptor, under 100 nM at human A2B receptor, under 10 nM at human A2A receptor and over 1000 nM on human A3 receptor.
